Reference: ChEMBL document CHEMBL1201862, “PubChem BioAssay data set” (2004)
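In this assay, cells in 96-well plates receive the compound at five concentrations for 48 hours. Endpoints are linearly interpolated between the surrounding concentrations. Abbreviation: GI50, concentration required for 50% inhibition of growth.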 Calls of active or inactive are those of the source. Rule as the data show it: active = GI50 up to about 1.1 µM and inactive = higher.

How the values were obtained:
Experiment in all cases: NCI tumour cell line growth inhibition, 48 h
MOLT-4 = test system: MOLT-4
IGROV-1 = test system: IGROV-1
SK-MEL-5 = test system: SK-MEL-5
SK-MEL-28 = test system: SK-MEL-28
HCC 2998 = test system: HCC 2998
SW-620 = test system: SW-620
SK-OV-3 = test system: SK-OV-3
ACHN = test system: ACHN
BT-549 = test system: BT-549
NCI-H522 = test system: NCI-H522
SF-295 = test system: SF-295
OVCAR-5 = test system: OVCAR-5
M14 = test system: M14
K562 = test system: K562
HCT-116 = test system: HCT-116
HT-29 = test system: HT-29
SR = test system: SR
SNB-75 = test system: SNB-75
OVCAR-8 = test system: OVCAR-8
MDA-MB-435 = test system: MDA-MB-435
786-0 = test system: 786-0
RXF 393 = test system: RXF 393
A498 = test system: A498
SF-268 = test system: SF-268
HL-60 = test system: HL-60
HCT-15 = test system: HCT-15
T47D = test system: T47D
CAKI-1 = test system: CAKI-1
SN12C = test system: SN12C
HOP-92 = test system: HOP-92
LOX IMVI = test system: LOX IMVI
NCI-H460 = test system: NCI-H460
TK-10 = test system: TK-10
PC-3 = test system: PC-3
RPMI-8226 = test system: RPMI-8226
UACC-257 = test system: UACC-257
NCI/ADR-RES = test system: NCI/ADR-RES
OVCAR-3 = test system: OVCAR-3
EKVX = test system: EKVX
NCI-H23 = test system: NCI-H23
NCI-H226 = test system: NCI-H226
HOP-62 = test system: HOP-62
A549 = test system: A549
COLO 205 = test system: COLO 205
UACC-62 = test system: UACC-62
MDA-MB-231 = test system: MDA-MB-231
UO-31 = test system: UO-31
CCRF-CEM = test system: CCRF-CEM
MCF7 = test system: MCF7
DU-145 = test system: DU-145
SK-MEL-2 = test system: SK-MEL-2
OVCAR-4 = test system: OVCAR-4
U-251 = test system: U-251
SF-539 = test system: SF-539
KM12 = test system: KM12
Malme-3M = test system: Malme-3M
SNB-19 = test system: SNB-19
MDA-N = test system: MDA-N
Hs-578T = test system: Hs-578T

**Q.** `CC(=O)OC12C3C4C1C1C2C3C41OC(C)=O` (configuration not stated) was tested. Which GI50 (MOLT-4) did it give?
**A.** > 100 µM (inactive)

**Q.** What about the GI50 (IGROV-1) of the same compound?
**A.** > 100 µM (inactive)

**Q.** What about the GI50 (SK-MEL-5) of the same compound?
**A.** > 100 µM (inactive)

**Q.** And the GI50 (SK-MEL-28)?
**A.** > 100 µM (inactive)

**Q.** What about the GI50 (HCC 2998) of the same compound?
**A.** > 100 µM (inactive)

**Q.** What about the GI50 (SW-620) of the same compound?
**A.** > 100 µM (inactive)

**Q.** And the GI50 (SK-OV-3)?
**A.** > 100 µM (inactive)

**Q.** And the GI50 (ACHN)?
**A.** > 100 µM (inactive)

**Q.** What about the GI50 (BT-549) of the same compound?
**A.** > 100 µM (inactive)

**Q.** And the GI50 (NCI-H522)?
**A.** > 100 µM (inactive)

**Q.** What about the GI50 (SF-295) of the same compound?
**A.** > 100 µM (inactive)

**Q.** What about the GI50 (OVCAR-5) of the same compound?
**A.** > 100 µM (inactive)

**Q.** And the GI50 (M14)?
**A.** > 100 µM (inactive)

**Q.** And the GI50 (K562)?
**A.** > 100 µM (inactive)

**Q.** What about the GI50 (HCT-116) of the same compound?
**A.** > 100 µM (inactive)

**Q.** What about the GI50 (HT-29) of the same compound?
**A.** > 100 µM (inactive)

**Q.** And the GI50 (SR)?
**A.** > 100 µM (inactive)

**Q.** And the GI50 (SNB-75)?
**A.** > 100 µM (inactive)

**Q.** What about the GI50 (OVCAR-8) of the same compound?
**A.** > 100 µM (inactive)

**Q.** And the GI50 (MDA-MB-435)?
**A.** > 100 µM (inactive)

**Q.** And the GI50 (786-0)?
**A.** > 100 µM (inactive)

**Q.** What about the GI50 (RXF 393) of the same compound?
**A.** > 100 µM (inactive)

**Q.** What about the GI50 (A498) of the same compound?
**A.** > 100 µM (inactive)

**Q.** And the GI50 (SF-268)?
**A.** > 100 µM (inactive)

**Q.** What about the GI50 (HL-60) of the same compound?
**A.** > 100 µM (inactive)

**Q.** And the GI50 (HCT-15)?
**A.** > 100 µM

**Q.** And the GI50 (T47D)?
**A.** > 100 µM (inactive)

**Q.** And the GI50 (CAKI-1)?
**A.** > 100 µM (inactive)

**Q.** What about the GI50 (SN12C) of the same compound?
**A.** > 100 µM (inactive)

**Q.** What about the GI50 (HOP-92) of the same compound?
**A.** > 100 µM (inactive)

**Q.** What about the GI50 (LOX IMVI) of the same compound?
**A.** > 100 µM (inactive)

**Q.** What about the GI50 (NCI-H460) of the same compound?
**A.** > 100 µM (inactive)

**Q.** What about the GI50 (TK-10) of the same compound?
**A.** > 100 µM (inactive)

**Q.** What about the GI50 (PC-3) of the same compound?
**A.** > 100 µM (inactive)

**Q.** What about the GI50 (RPMI-8226) of the same compound?
**A.** > 100 µM (inactive)

**Q.** What about the GI50 (UACC-257) of the same compound?
**A.** > 100 µM (inactive)

**Q.** What about the GI50 (NCI/ADR-RES) of the same compound?
**A.** > 100 µM (inactive)

**Q.** What about the GI50 (OVCAR-3) of the same compound?
**A.** > 100 µM (inactive)

**Q.** And the GI50 (EKVX)?
**A.** > 100 µM (inactive)

**Q.** What about the GI50 (NCI-H23) of the same compound?
**A.** > 100 µM (inactive)

**Q.** What about the GI50 (NCI-H226) of the same compound?
**A.** > 100 µM (inactive)

**Q.** What about the GI50 (HOP-62) of the same compound?
**A.** > 100 µM (inactive)

**Q.** What about the GI50 (A549) of the same compound?
**A.** > 100 µM (inactive)

**Q.** What about the GI50 (COLO 205) of the same compound?
**A.** > 100 µM (inactive)

**Q.** What about the GI50 (UACC-62) of the same compound?
**A.** > 100 µM (inactive)

**Q.** What about the GI50 (MDA-MB-231) of the same compound?
**A.** > 100 µM (inactive)

**Q.** And the GI50 (UO-31)?
**A.** > 100 µM (inactive)

**Q.** What about the GI50 (CCRF-CEM) of the same compound?
**A.** > 100 µM (inactive)

**Q.** What about the GI50 (MCF7) of the same compound?
**A.** > 100 µM (inactive)

**Q.** And the GI50 (DU-145)?
**A.** > 100 µM (inactive)

**Q.** What about the GI50 (SK-MEL-2) of the same compound?
**A.** > 100 µM (inactive)

**Q.** And the GI50 (OVCAR-4)?
**A.** > 100 µM (inactive)

**Q.** What about the GI50 (U-251) of the same compound?
**A.** > 100 µM (inactive)

**Q.** And the GI50 (SF-539)?
**A.** > 100 µM (inactive)

**Q.** And the GI50 (KM12)?
**A.** > 100 µM (inactive)

**Q.** Which results are given for `Cc1ccc(S(=O)(=O)N/C(=C\C=C\c2ccccc2)C(=O)C(C)(C)C)cc1`?
**A.** GI50 (MOLT-4): > 100 µM (inactive); GI50 (IGROV-1): 50.5 µM (inactive); GI50 (SK-MEL-5): 56 µM (inactive); GI50 (SK-MEL-28): > 100 µM (inactive); GI50 (HCC 2998): > 100 µM (inactive); GI50 (SW-620): > 100 µM (inactive); GI50 (SK-OV-3): 38.6 µM (inactive); GI50 (ACHN): 58.5 µM (inactive); GI50 (NCI-H522): 59 µM (inactive); GI50 (SF-295): 75 µM (inactive); GI50 (OVCAR-5): > 100 µM (inactive); GI50 (M14): > 100 µM (inactive); GI50 (K562): > 100 µM (inactive); GI50 (Malme-3M): > 100 µM (inactive); GI50 (HCT-116): > 100 µM (inactive); GI50 (HT-29): > 100 µM (inactive); GI50 (SR): > 100 µM (inactive); GI50 (SNB-75): 56.2 µM (inactive); GI50 (OVCAR-8): 51.4 µM (inactive); GI50 (MDA-MB-435): > 100 µM (inactive); GI50 (786-0): 27.5 µM (inactive); GI50 (RXF 393): 37.8 µM (inactive); GI50 (A498): 89.5 µM (inactive); GI50 (SF-268): 46.2 µM (inactive); GI50 (HL-60): > 100 µM (inactive); GI50 (HCT-15): > 100 µM; GI50 (T47D): 85.1 µM (inactive); GI50 (CAKI-1): > 100 µM (inactive); GI50 (SNB-19): 55.5 µM (inactive); GI50 (SN12C): > 100 µM (inactive); GI50 (HOP-92): 22.7 µM (inactive); GI50 (LOX IMVI): > 100 µM (inactive); GI50 (NCI-H460): > 100 µM (inactive); GI50 (TK-10): > 100 µM (inactive); GI50 (PC-3): 75.2 µM (inactive); GI50 (RPMI-8226): 0.492 µM (active); GI50 (UACC-257): 45.5 µM (inactive); GI50 (MDA-N): > 100 µM (inactive); GI50 (NCI/ADR-RES): 42.3 µM (inactive); GI50 (OVCAR-3): > 100 µM (inactive); GI50 (EKVX): > 100 µM (inactive); GI50 (NCI-H23): 59.4 µM (inactive); GI50 (NCI-H226): > 100 µM (inactive); GI50 (HOP-62): 19.5 µM (inactive); GI50 (A549): 46.5 µM (inactive); GI50 (COLO 205): > 100 µM (inactive); GI50 (MDA-MB-231): 29.9 µM (inactive); GI50 (Hs-578T): 35.1 µM (inactive); GI50 (UO-31): > 100 µM (inactive); GI50 (CCRF-CEM): > 100 µM (inactive); GI50 (MCF7): 73.1 µM (inactive); GI50 (DU-145): > 100 µM (inactive); GI50 (SK-MEL-2): > 100 µM (inactive); GI50 (OVCAR-4): 35.2 µM (inactive); GI50 (U-251): 63.1 µM (inactive); GI50 (SF-539): 37.9 µM (inactive); GI50 (KM12): > 100 µM (inactive)
